How the values were obtained:
bedstraw = assay: Test B pre/postemergence bedstraw; type: in vivo, Galium aparine; conditions: Postemergence
Outline: (§1)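 Response is a visual 0-to-10 score relative to untreated plants, where 0 means no effect and 10 means complete control, taken twelve to sixteen days after application. Treatments went onto soil at planting and onto foliage of 1- to 4-leaf plants, using a surfactant-containing non-phytotoxic solvent.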

blackgrass = assay: Test B pre/postemergence blackgrass; type: in vivo, Alopecurus myosuroides
Outline: as §1

surinam grass = assay: Test B pre/postemergence surinam grass; type: in vivo, Brachiaria decumbens
Outline: as §1

corn = assay: Test B pre/postemergence corn; type: in vivo, Zea mays
Outline: as §1

crabgrass = assay: Test B pre/postemergence crabgrass; type: in vivo, Digitaria sanguinalis
Outline: as §1

giant foxtail = assay: Test B pre/postemergence giant foxtail; type: in vivo, Setaria faberii
Outline: as §1

morningglory = assay: Test B pre/postemergence morningglory; type: in vivo, Ipomoea hederacea; conditions: for Plant response rating, Morningglory: scale of 0 to 10 where 0 is no effect and 10 is complete control
Outline: as §1

pigweed = assay: Test B pre/postemergence pigweed; type: in vivo, Amaranthus retroflexus
Outline: as §1

rape = assay: Test B pre/postemergence rape; type: in vivo, Brassica napus
Outline: as §1

soybean = assay: Test B pre/postemergence soybean; type: in vivo, Glycine max
Outline: as §1

velvetleaf = assay: Test B pre/postemergence velvetleaf; type: in vivo, Abutilon theophrasti
Outline: as §1

wheat = assay: Test B pre/postemergence wheat; type: in vivo, Triticum aestivum
Outline: as §1

wild oat = assay: Test B pre/postemergence wild oat; type: in vivo, Avena fatua
Outline: as §1

purple nutsedge = assay: Test B pre/postemergence purple nutsedge; type: in vivo, Cyperus rotundus
Outline: as §1

rice = assay: Test B flood test rice; type: in vivo, Oryza sativa
Outline: (§2)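 Each value is a visual injury score relative to controls, with 10 meaning complete control and 0 no effect. Evaluation took place twelve to sixteen days after the 2-leaf-stage plants were treated and kept in the greenhouse.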

duck salad = assay: Test B flood test duck salad; type: in vivo, Heteranthera limosa
Outline: as §2

[1] = Postemergence, Rate 250 g/ha, scale 0 to 10
[2] = Postemergence, Rate 500 g/ha, scale of 0 to 10 where 0 is no effect and 10 is complete control
[3] = Preemergence, Rate 62 g/ha, scale of 0 to 10 where 0 is no effect and 10 is complete control
[4] = Preemergence, Rate 125 g/ha, scale of 0 to 10 where 0 is no effect and 10 is complete control
[5] = Preemergence, Rate 250 g/ha, scale 0 to 10, 0 is no effect, 10 is complete control
[6] = Preemergence, Rate 500 g/ha, scale 0 to 10, 0 is no effect, 10 is complete control
[7] = Rate 62 g/ha, Postemergence, scale 0 to 10 (0 no effect, 10 complete control)
[8] = Rate 125 g/ha, Postemergence, scale 0 to 10, 0 is no effect, 10 is complete control
[9] = Postemergence block (flood test species), Rate 250 g/ha, scale 0 to 10
[10] = Postemergence section (flood test species), Rate 500 g/ha, scale of 0 to 10 where 0 is no effect and 10 is complete control
[11] = Rate 62 g/ha, Postemergence (flood test), scale 0 to 10, 0 no effect, 10 complete control
[12] = Rate 125 g/ha, Postemergence section (flood test species), scale 0 to 10, 0 is no effect, 10 is complete control

CC(C)N(C(=O)n1oc(=O)n(CC(=O)N(C)C)c1=O)c1ccc(F)cc1F [Compound 440]
Bedstraw plant response rating (bedstraw; Rate 250 g/ha, scale 0 to 10): 2 | Bedstraw plant response rating (bedstraw; Rate 125 g/ha, scale 0 to 10, 0 is no effect, 10 is complete control): 0 | Blackgrass plant response rating (blackgrass; [1]): 4 | Blackgrass plant response rating (blackgrass; [2]): 8 | Plant response rating, Blackgrass (blackgrass; [3]): 2 | Plant response rating, Blackgrass (blackgrass; [4]): 6 | Blackgrass plant response rating (blackgrass; [5]): 10 | Blackgrass plant response rating (blackgrass; [6]): 10 | Blackgrass plant response rating (blackgrass; [7]): 0 | Blackgrass plant response rating (blackgrass; [8]): 0 | B. signalgrass plant response rating (surinam grass; Postemergence, Rate 250 g/ha, scale 0 to 10, 0 no effect, 10 complete control): 2 | B. signalgrass plant response rating (surinam grass; [2]): 8 | Plant response rating, B. signalgrass (surinam grass; [3]): 1 | Plant response rating, B. signalgrass (surinam grass; [4]): 4 | B. signalgrass plant response rating (surinam grass; [5]): 8 | B. signalgrass plant response rating (surinam grass; [6]): 8 | B. signalgrass plant response rating (surinam grass; [7]): 0 | B. signalgrass plant response rating (surinam grass; [8]): 0 | Corn plant response rating (corn; [1]): 0 | Corn plant response rating (corn; [2]): 0 | Plant response rating, Corn (corn; [3]): 0 | Plant response rating, Corn (corn; [4]): 0 | Corn plant response rating (corn; [5]): 0 | Corn plant response rating (corn; [6]): 0 | Corn plant response rating (corn; [7]): 0 | Corn plant response rating (corn; [8]): 0 | Crabgrass plant response rating (crabgrass; [1]): 9 | Crabgrass plant response rating (crabgrass; [2]): 9 | Plant response rating, Crabgrass (crabgrass; [3]): 7 | Plant response rating, Crabgrass (crabgrass; [4]): 7 | Crabgrass plant response rating (crabgrass; [5]): 10 | Crabgrass plant response rating (crabgrass; [6]): 10 | Crabgrass plant response rating (crabgrass; [7]): 1 | Crabgrass plant response rating (crabgrass; [8]): 2 | Giant foxtail plant response rating (giant foxtail; [1]): 9 | Giant foxtail plant response rating (giant foxtail; [2]): 9 | Plant response rating, Giant foxtail (giant foxtail; [3]): 6 | Plant response rating, Giant foxtail (giant foxtail; [4]): 6 | Giant foxtail plant response rating (giant foxtail; [5]): 10 | Giant foxtail plant response rating (giant foxtail; [6]): 10 | Giant foxtail plant response rating (giant foxtail; [7]): 0 | Giant foxtail plant response rating (giant foxtail; [8]): 4 | Morningglory plant response rating (morningglory; [1]): 8 | Plant response rating, Morningglory (morningglory; Preemergence, Rate 62 g/ha): 0 | Plant response rating, Morningglory (morningglory; Preemergence, Rate 125 g/ha): 0 | Morningglory plant response rating (morningglory; [5]): 0 | Morningglory plant response rating (morningglory; [6]): 0 | Morningglory plant response rating (morningglory; [7]): 2 | Morningglory plant response rating (morningglory; [8]): 8 | Redroot pigweed plant response rating (pigweed; [1]): 3 | Redroot pigweed plant response rating (pigweed; [2]): 4 | Plant response rating, Redroot pigweed (pigweed; [3]): 0 | Plant response rating, Redroot pigweed (pigweed; [4]): 4 | Redroot pigweed plant response rating (pigweed; [5]): 7 | Redroot pigweed plant response rating (pigweed; [6]): 10 | Redroot pigweed plant response rating (pigweed; [7]): 0 | Redroot pigweed plant response rating (pigweed; [8]): 1 | Rape plant response rating (rape; [1]): 0 | Rape plant response rating (rape; [2]): 0 | Plant response rating, Rape (rape; [3]): 0 | Plant response rating, Rape (rape; [4]): 0 | Rape plant response rating (rape; [5]): 3 | Rape plant response rating (rape; [6]): 3 | Rape plant response rating (rape; [7]): 0 | Rape plant response rating (rape; [8]): 0 | Soybean plant response rating (soybean; [1]): 6 | Soybean plant response rating (soybean; [2]): 7 | Plant response rating, Soybean (soybean; [3]): 0 | Plant response rating, Soybean (soybean; [4]): 0 | Soybean plant response rating (soybean; [5]): 0 | Soybean plant response rating (soybean; [6]): 0 | Soybean plant response rating (soybean; [7]): 5 | Soybean plant response rating (soybean; [8]): 6 | Velvetleaf plant response rating (velvetleaf; [1]): 0 | Velvetleaf plant response rating (velvetleaf; [2]): 2 | Plant response rating, Velvetleaf (velvetleaf; [3]): 0 | Plant response rating, Velvetleaf (velvetleaf; [4]): 0 | Velvetleaf plant response rating (velvetleaf; [5]): 0 | Velvetleaf plant response rating (velvetleaf; [6]): 7 | Velvetleaf plant response rating (velvetleaf; [7]): 0 | Velvetleaf plant response rating (velvetleaf; [8]): 0 | Wheat plant response rating (wheat; [1]): 0 | Wheat plant response rating (wheat; [2]): 4 | Plant response rating, Wheat (wheat; [3]): 0 | Plant response rating, Wheat (wheat; [4]): 0 | Wheat plant response rating (wheat; [5]): 5 | Wheat plant response rating (wheat; [6]): 7 | Wheat plant response rating (wheat; [7]): 0 | Wheat plant response rating (wheat; [8]): 0 | Wild oats plant response rating (wild oat; [1]): 0 | Wild oats plant response rating (wild oat; [2]): 5 | Plant response rating, Wild oats (wild oat; [3]): 0 | Plant response rating, Wild oats (wild oat; [4]): 5 | Wild oats plant response rating (wild oat; [5]): 9 | Wild oats plant response rating (wild oat; [6]): 9 | Wild oats plant response rating (wild oat; [7]): 0 | Wild oats plant response rating (wild oat; [8]): 0 | Nutsedge plant response rating (purple nutsedge; [1]): 0 | Nutsedge plant response rating (purple nutsedge; [2]): 0 | Plant response rating, Nutsedge (purple nutsedge; [3]): 0 | Plant response rating, Nutsedge (purple nutsedge; [4]): 0 | Nutsedge plant response rating (purple nutsedge; [5]): 0 | Nutsedge plant response rating (purple nutsedge; [7]): 0 | Nutsedge plant response rating (purple nutsedge; [8]): 0 | Rice plant response rating (rice; [9]): 0 | Rice plant response rating (rice; [10]): 0 | Rice plant response rating (rice; [11]): 0 | Rice plant response rating (rice; [12]): 0 | Ducksalad plant response rating (duck salad; [9]): 0 | Ducksalad plant response rating (duck salad; [10]): 0 | Ducksalad plant response rating (duck salad; [11]): 0 | Ducksalad plant response rating (duck salad; [12]): 0
